Values of other authors as cited in US12472172B2, “Lomitapide for use in methods of treating hyperlipidemia and hypercholesterolemia in pediatric patients” (Amryt Pharmaceuticals Inc., priority 2020, dated 2025).

Conditions: adult

**Q.** With `O=C(NC1CCN(CCCCC2(C(=O)NCC(F)(F)F)c3ccccc3-c3ccccc32)CC1)c1ccccc1-c1ccc(C(F)(F)F)cc1` [lomitapide, N-(2,2,2-trifluoroethyl)-9-[4-[4-[[[4′(trifluoromethyl)[1,1′-biphenyl]-2-yl]carbonyl]amino]-1-piperidinyl]butyl]-9H-fluorene-9-carboxamide] as the compound, how does the “previously used fixed Qgut input” value read?
**A.** 17.9 L/h
